Measurements taken from US12492181B2, “Gem-disubstituted piperidine melanocortin subtype-2 receptor (MC2R) antagonists and uses thereof” (Crinetics Pharmaceuticals, Inc., priority 2019, dated 2025).

Molecular target: T1, hMC2 receptor (crude hMC2R membranes from CRE-bla-CHO-K1 cells stably expressing hMC2 receptor and hMRAP accessory protein) (Homo sapiens, UniProt Q01718)
T1 construct: crude membrane fractions
Assay: hMC2 membrane binding assay ([125I]ACTH (1-39) Tyr23, SPA)
Conditions: displacement of 0.2 nM [125I]ACTH (1-39) Tyr23 from hMC2R membranes, 1.5 hours at room temperature; read-out: MC2R binding potency
Procedure, shortened: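 Crude membranes from CRE-bla-CHO-K1 cells stably co-expressing hMC2R and hMRAP, premixed with WGA PVT SPA beads in pH 7.4 HEPES buffer (5 mM MgCl2, 1 mM CaCl2, 0.20% BSA, protease inhibitors). Compounds compete with [125I]ACTH(1-39) Tyr23, read by scintillation. Ki from non-linear regression.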

T1 sequence (Q01718 whole entry): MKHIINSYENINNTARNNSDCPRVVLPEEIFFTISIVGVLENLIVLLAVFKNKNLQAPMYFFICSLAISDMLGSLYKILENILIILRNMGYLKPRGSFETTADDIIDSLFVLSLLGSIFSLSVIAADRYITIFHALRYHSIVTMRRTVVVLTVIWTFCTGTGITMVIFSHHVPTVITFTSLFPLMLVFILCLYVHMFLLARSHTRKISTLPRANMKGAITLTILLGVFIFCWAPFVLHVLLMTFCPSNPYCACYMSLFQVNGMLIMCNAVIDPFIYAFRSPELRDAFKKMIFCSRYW
T1 sequence (Q8TCY5 whole entry partner): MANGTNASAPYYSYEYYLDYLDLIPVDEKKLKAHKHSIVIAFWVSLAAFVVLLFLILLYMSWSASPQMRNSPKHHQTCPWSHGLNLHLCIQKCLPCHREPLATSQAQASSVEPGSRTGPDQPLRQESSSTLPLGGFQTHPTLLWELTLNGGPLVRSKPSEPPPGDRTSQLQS

Structure (SMILES)	Ki [nM]
COc1ccccc1-c1ccc(C2(C(=O)NC3CN(C)C3)CCN(c3ccc(Cl)cc3C#N)CC2)cn1 [Compound 1-92, 1-(4-chloro-2-cyanophenyl)-4-[6-(2-methoxyphenyl)pyridin-3-yl]-N-(1-methylazetidin-3-yl)piperidine-4-carboxamide]	< 10
COc1ccccc1-c1ccc(C2(C(=O)NC3CN(C)C3)CCN(c3ccc(C(F)(F)F)cc3C#N)CC2)cn1 [Compound 1-94, 1-[2-cyano-4-(trifluoromethyl)phenyl]-4-[6-(2-methoxyphenyl)pyridin-3-yl]-N-(1-methylazetidin-3-yl)piperidine-4-carboxamide]	< 10
CCOc1ccccc1-c1ccc(C2(C(=O)N[C@H]3CCN(C)C3)CCN(c3ccc(C(F)(F)F)cc3Cl)CC2)cn1 [Compound 1-97, 1-[2-chloro-4-(trifluoromethyl)phenyl]-4-[6-(2-ethoxyphenyl)pyridin-3-yl]-N-[(3S)-1-methylpyrrolidin-3-yl]piperidine-4-carboxamide]	< 10
Cc1ncncc1-c1ccc(C2(C(=O)N[C@@H]3CCN(C)C3)CCN(c3ccc(C(F)(F)F)cc3C#N)CC2)cn1 [Compound 1-105, 1-[2-cyano-4-(trifluoromethyl)phenyl]-4-[6-(4-methylpyrimidin-5-yl)pyridin-3-yl]-N-[(3R)-1-methylpyrrolidin-3-yl]piperidine-4-carboxamide]	10 to 100
CCOc1ncccc1-c1ncc(C2(C(=O)N[C@H]3CCN(C)C3)CCN(c3ccc(C(F)(F)F)cc3C#N)CC2)cn1 [Compound 1-106, 1-[2-cyano-4-(trifluoromethyl)phenyl]-4-[2-(2-ethoxypyridin-3-yl)pyrimidin-5-yl]-N-[(3S)-1-methylpyrrolidin-3-yl]piperidine-4-carboxamide]	< 10
CCOc1ncccc1-c1ncc(C2(C(=O)N[C@H]3CCN(C)C3)CCN(c3ccc(C(F)(F)F)cc3C#N)CC2)cc1F [Compound 1-109, 1-[2-cyano-4-(trifluoromethyl)phenyl]-4-{2′-ethoxy-3-fluoro-[2,3′-bipyridin]-5-yl}-N-[(3S)-1-methylpyrrolidin-3-yl]piperidine-4-carboxamide]	< 10
Cc1sccc1-c1ccc(C2(C(=O)N[C@@H]3CCN(C)C3)CCN(c3ccc(C(F)(F)F)cc3C#N)CC2)cn1 [Compound 1-112, 1-[2-cyano-4-(trifluoromethyl)phenyl]-N-[(3R)-1-methylpyrrolidin-3-yl]-4-[6-(2-methylthiophen-3-yl)pyridin-3-yl]piperidine-4-carboxamide]	< 10
CN1CC[C@@H](NC(=O)C2(c3ccc(-c4ccccc4C4CC4)nc3)CCN(c3ccc(C(F)(F)F)cc3C#N)CC2)C1 [Compound 1-113, 1-[2-cyano-4-(trifluoromethyl)phenyl]-4-[6-(2-cyclopropylphenyl)pyridin-3-yl]-N-[(3R)-1-methylpyrrolidin-3-yl]piperidine-4-carboxamide]	< 10
Cc1occc1-c1ccc(C2(C(=O)N[C@@H]3CCN(C)C3)CCN(c3ccc(C(F)(F)F)cc3C#N)CC2)cn1 [Compound 1-116, 1-[2-cyano-4-(trifluoromethyl)phenyl]-4-[6-(2-methylfuran-3-yl)pyridin-3-yl]-N-[(3R)-1-methylpyrrolidin-3-yl]piperidine-4-carboxamide]	< 10
CCCc1ccccc1-c1ccc(C2(C(=O)N[C@@H]3CCN(C)C3)CCN(c3ccc(C(F)(F)F)cc3C#N)CC2)cn1 [Compound 1-117, 1-[2-cyano-4-(trifluoromethyl)phenyl]-N-[(3R)-1-methylpyrrolidin-3-yl]-4-[6-(2-propylphenyl)pyridin-3-yl]piperidine-4-carboxamide]	< 10
CCc1ncccc1-c1ccc(C2(C(=O)N[C@@H]3CCN(C)C3)CCN(c3ccc(C(F)(F)F)cc3C#N)CC2)cn1 [Compound 1-118, 1-[2-cyano-4-(trifluoromethyl)phenyl]-4-{2′-ethyl-[2,3′-bipyridin]-5-yl}-N-[(3R)-1-methylpyrrolidin-3-yl]piperidine-4-carboxamide]	< 10

Results, then the compound that gave them:

Ki [nM]	Structure (SMILES)
< 10	COc1ccccc1-c1ccc(C2(C(=O)N[C@H]3CCN(C)C3)CCN(c3ccc(Cl)cc3C#N)CC2)cn1 [Compound 1-91, 1-(4-chloro-2-cyanophenyl)-4-[6-(2-methoxyphenyl)pyridin-3-yl]-N-[(3S)-1-methylpyrrolidin-3-yl]piperidine-4-carboxamide]
< 10	CCOc1ccccc1-c1ccc(C2(C(=O)NC3CN(C)C3)CCN(c3ccc(Cl)cc3C#N)CC2)cn1 [Compound 1-93, 1-(4-chloro-2-cyanophenyl)-4-[6-(2-ethoxyphenyl)pyridin-3-yl]-N-(1-methylazetidin-3-yl)piperidine-4-carboxamide]
< 10	CCOc1ccccc1-c1ccc(C2(C(=O)N[C@H]3CCN(C)C3)CCN(c3ccc(Cl)cc3Cl)CC2)cn1 [Compound 1-95, 1-(2,4-dichlorophenyl)-4-[6-(2-ethoxyphenyl)pyridin-3-yl]-N-[(3S)-1-methylpyrrolidin-3-yl]piperidine-4-carboxamide]
< 10	CCOc1ccccc1-c1ccc(C2(C(=O)N[C@H]3CCN(C)C3)CCN(c3ccc(F)cc3C#N)CC2)cn1 [Compound 1-96, 1-(2-cyano-4-fluorophenyl)-4-[6-(2-ethoxyphenyl)pyridin-3-yl]-N-[(3S)-1-methylpyrrolidin-3-yl]piperidine-4-carboxamide]
< 10	COc1ncccc1-c1ccc(C2(C(=O)N[C@@H]3CCN(C)C3)CCN(c3ccc(C(F)(F)F)cc3C#N)CC2)cn1 [Compound 1-98, 1-[2-cyano-4-(trifluoromethyl)phenyl]-4-{2′-methoxy-[2,3′-bipyridin]-5-yl}-N-[(3R)-1-methylpyrrolidin-3-yl]piperidine-4-carboxamide]
< 10	Cc1ccc(F)cc1-c1ccc(C2(C(=O)N[C@@H]3CCN(C)C3)CCN(c3ccc(C(F)(F)F)cc3C#N)CC2)cn1 [Compound 1-99, 1-[2-cyano-4-(trifluoromethyl)phenyl]-4-[6-(5-fluoro-2-methylphenyl)pyridin-3-yl]-N-[(3R)-1-methylpyrrolidin-3-yl]piperidine-4-carboxamide]
< 10	CN1CC[C@H](NC(=O)C2(c3ccc(-c4cccn4C)nc3)CCN(c3ccc(C(F)(F)F)cc3C#N)CC2)C1 [Compound 1-100, 1-[2-cyano-4-(trifluoromethyl)phenyl]-4-[6-(1-methyl-1H-pyrrol-2-yl)pyridin-3-yl]-N-[(3S)-1-methylpyrrolidin-3-yl]piperidine-4-carboxamide]
< 10	COc1ccc(F)cc1-c1ccc(C2(C(=O)N[C@H]3CCN(C)C3)CCN(c3ccc(C(F)(F)F)cc3C#N)CC2)cn1 [Compound 1-102, 1-[2-cyano-4-(trifluoromethyl)phenyl]-4-[6-(5-fluoro-2-methoxyphenyl)pyridin-3-yl]-N-[(3S)-1-methylpyrrolidin-3-yl]piperidine-4-carboxamide]
< 10	CCc1ccccc1-c1ccc(C2(C(=O)N[C@H]3CCN(C)C3)CCN(c3ccc(C(F)(F)F)cc3C#N)CC2)cn1 [Compound 1-104, 1-[2-cyano-4-(trifluoromethyl)phenyl]-4-[6-(2-ethylphenyl)pyridin-3-yl]-N-[(3S)-1-methylpyrrolidin-3-yl]piperidine-4-carboxamide]
< 10	CCOc1ncccc1-c1ncc(C2(C(=O)N[C@@H]3CCN(C)C3)CCN(c3ccc(C(F)(F)F)cc3C#N)CC2)cn1 [Compound 1-107, 1-[2-cyano-4-(trifluoromethyl)phenyl]-4-[2-(2-ethoxypyridin-3-yl)pyrimidin-5-yl]-N-[(3R)-1-methylpyrrolidin-3-yl]piperidine-4-carboxamide]
< 10	CCOc1ncccc1-c1ncc(C2(C(=O)N[C@@H]3CCN(C)C3)CCN(c3ccc(C(F)(F)F)cc3C#N)CC2)cc1F [Compound 1-108, 1-[2-cyano-4-(trifluoromethyl)phenyl]-4-{2′-ethoxy-3-fluoro-[2,3′-bipyridin]-5-yl}-N-[(3R)-1-methylpyrrolidin-3-yl]piperidine-4-carboxamide]
< 10	CCOc1ncccc1-c1ncc(C2(C(=O)N[C@H]3CCN(C)C3)CCN(c3ccc(C(F)(F)F)nc3C#N)CC2)cc1F [Compound 1-110, 1-[2-cyano-6-(trifluoromethyl)pyridin-3-yl]-4-{2′-ethoxy-3-fluoro-[2,3′-bipyridin]-5-yl}-N-[(3S)-1-methylpyrrolidin-3-yl]piperidine-4-carboxamide]
< 10	CCOc1ccccc1-c1ccc(C2(C(=O)N[C@H]3CCN(C)C3)CCN(c3c(F)cc(Cl)cc3C#N)CC2)cn1 [Compound 1-111, 1-(4-chloro-2-cyano-6-fluorophenyl)-4-[6-(2-ethoxyphenyl)pyridin-3-yl]-N-[(3S)-1-methylpyrrolidin-3-yl]piperidine-4-carboxamide]
< 10	CN1CC[C@@H](NC(=O)C2(c3ccc(-c4ccccc4OC(F)F)nc3)CCN(c3ccc(C(F)(F)F)cc3C#N)CC2)C1 [Compound 1-114, 1-[2-cyano-4-(trifluoromethyl)phenyl]-4-{6-[2-(difluoromethoxy)phenyl]pyridin-3-yl}-N-[(3R)-1-methylpyrrolidin-3-yl]piperidine-4-carboxamide]
10 to 100	CN1CC[C@@H](NC(=O)C2(c3ccc(-c4ccn(C)c4)nc3)CCN(c3ccc(C(F)(F)F)cc3C#N)CC2)C1 [Compound 1-115, 1-[2-cyano-4-(trifluoromethyl)phenyl]-4-[6-(1-methyl-1H-pyrrol-3-yl)pyridin-3-yl]-N-[(3R)-1-methylpyrrolidin-3-yl]piperidine-4-carboxamide]
< 10	COc1sccc1-c1ccc(C2(C(=O)N[C@H]3CCN(C)C3)CCN(c3ccc(C(F)(F)F)cc3C#N)CC2)cn1 [Compound 1-119, 1-[2-cyano-4-(trifluoromethyl)phenyl]-4-[6-(2-methoxythiophen-3-yl)pyridin-3-yl]-N-[(3S)-1-methylpyrrolidin-3-yl]piperidine-4-carboxamide]
